Assay results reported in publication PMC5458078, “Global mapping of CARM1 substrates defines enzyme specificity and substrate recognition” (Nature Communications, 2017).

Tests used:
histone substrate = details: PRMT1, histone substrate; ref Pak et al., Biochem 2011; cited from earlier work
Description: page 18: We agree with the reviewer’s assertion that proteomic experiments generally suffer from the abundance bias. However, we, and others, argue that analyses of post-translational modifications are less affected by this issue, as the immunoprecipitation and other methods of PTM enrichment rely on the abundance of the PTM itself, not the protein that bears it, i.e., a strongly modified low abundance protein is as likely to be pulled down as a lowly modified high abundance protein.

MCF7 CARM1 KO cells = assay: Quantitative MS of ADMA-containing peptides in MCF7 CARM1 KO cells expressing CARM1 28-608 or CARM1 140-608, and in CARM1 KO; assay type: cell-based, human
MCF7 cells = assay: Quantitative nanoLC-MS/MS (TMT) of ADMA-containing peptides, CARM1 KO vs parental; assay type: cell-based, human; design: Fold change KO/WT: scale not given here
[1] = CARM1 140-608 versus WT, mean of three replicates (log2)
[2] = KO versus WT, mean of three replicates (log2)
[3] = ADMA-containing peptide, CARM1 knockout (KO) vs wild type (WT) MCF7 cells, 6-plex TMT experiment #1, three biological replicates each, sheet "MCF7"
[4] = CARM1 140-608 versus WT, difference of mean log2 values
[5] = CARM1 KO versus WT, difference of mean log2 values
[6] = CARM1 KO vs wild type MCF7 cells, 3 biological replicates each
[7] = log2 scale ratio, mean of n = 3
[8] = ADMA-containing peptide, MCF7, CARM1 knockout (KO1-3) vs wild type (WT1-3), TMT 6-plex experiment #1
[9] = ratio on log2 scale, mean of 3 replicates
[10] = MCF7, CARM1 knockout vs wild type, n = 3 each
[11] = difference of log2 means, CARM1 140-608 vs WT
[12] = difference of log2 means, KO vs WT
[13] = CARM1 140-608 vs WT, mean of 3 replicates, log2
[14] = KO vs WT, mean of 3 replicates, log2
[15] = MCF7, CARM1 KO vs WT, three biological replicates each
[16] = mean, CARM1 140-608 versus WT (log2 scale)
[17] = mean, CARM1 KO versus WT (log2 scale)
[18] = CARM1 140-608 vs WT, mean of 3 replicates (log2 scale)
[19] = KO vs WT, mean of 3 replicates (log2 scale)
[20] = MCF7, CARM1 KO (KO1-KO3) vs wild type (WT1-WT3)
[21] = MCF7 CARM1 knockout vs wild type, 3 biological replicates each, values are on log2 scale

PRMT1: protein arginine methyltransferase 1
Km (histone substrate): 4.2 µM

TPGQPGPQrFDGPPGQQVQPrFDGVPQrFDGPQHQQASR
CARM1 140-608/WT (MCF7 CARM1 KO cells; [1]): -1.05 | KO/WT (MCF7 CARM1 KO cells; [2]): -1.824 | Fold change KO/WT (MCF7 cells; [3]): -1.547

TPLLGDGPrAPFNQEGQSTGPPPLIPGLGQQGAQGR
CARM1 140-608/WT (MCF7 CARM1 KO cells; [4]): -4.072 | KO/WT (MCF7 CARM1 KO cells; [5]): -5.54 | Fold change KO/WT (MCF7 cells; [6]): -4.991

TPTATTSGIrATLTPTVLAPR
CARM1 140-608/WT (MCF7 CARM1 KO cells; [7]): 0.4696 | KO/WT (MCF7 CARM1 KO cells; [7]): -2.089 | Fold change KO/WT (MCF7 cells; [8]): -1.669

TPTATTSGIrATLTPTVLAPrLPQPPQNPTNIQNFQLPPGMVLVR
CARM1 140-608/WT (MCF7 CARM1 KO cells; [7]): 0.4964 | KO/WT (MCF7 CARM1 KO cells; [7]): -3.04 | Fold change KO/WT (MCF7 cells; [8]): -3.04

TRNPFLTGLSAPSPTNPFGAGEPGrPTLNQMR
CARM1 140-608/WT (MCF7 CARM1 KO cells; [9]): -1.179 | KO/WT (MCF7 CARM1 KO cells; [9]): -1.766 | Fold change KO/WT (MCF7 cells; [10]): -1.766

TSGELGPFNNGASYPLQAGQPrLTK
CARM1 140-608/WT (MCF7 CARM1 KO cells; [11]): -2.866 | KO/WT (MCF7 CARM1 KO cells; [12]): -4.63 | Fold change KO/WT (MCF7 cells; [3]): -4.512

TSSGLFPrIPLQPQAPVSSIGSPVGTPK
CARM1 140-608/WT (MCF7 CARM1 KO cells; [13]): 0.8175 | KO/WT (MCF7 CARM1 KO cells; [14]): -2.603 | Fold change KO/WT (MCF7 cells; [15]): -2.869

TSVYrQQQPAVPQGQrLrQQLQAK
CARM1 140-608/WT (MCF7 CARM1 KO cells; [11]): -3.863 | KO/WT (MCF7 CARM1 KO cells; [12]): -4.228 | Fold change KO/WT (MCF7 cells; [3]): -4.048

TVPMGGVrLVTPVTVSAVKPAVTTLVVK
CARM1 140-608/WT (MCF7 CARM1 KO cells; [16]): -0.6483 | KO/WT (MCF7 CARM1 KO cells; [17]): -2.889 | Fold change KO/WT (MCF7 cells; [10]): -2.889

TYQASSAAFrYTAGTPYK
CARM1 140-608/WT (MCF7 CARM1 KO cells; [9]): -4.171 | KO/WT (MCF7 CARM1 KO cells; [9]): -4.425 | Fold change KO/WT (MCF7 cells; [10]): -4.425

VELPTCMYrLPNVHGR
CARM1 140-608/WT (MCF7 CARM1 KO cells; [13]): -1.403 | KO/WT (MCF7 CARM1 KO cells; [14]): -3.7411 | Fold change KO/WT (MCF7 cells; [15]): -2.379

VFrYSTSLEK
CARM1 140-608/WT (MCF7 CARM1 KO cells; [18]): 0.01169 | KO/WT (MCF7 CARM1 KO cells; [19]): 0.0856 | Fold change KO/WT (MCF7 cells; [20]): 0.0856

VGSSNFrGGLGGGYGGASGMGGITAVTVNQSLLSPLVLEVDPNIQAVR
CARM1 140-608/WT (MCF7 CARM1 KO cells; [11]): -0.9286 | KO/WT (MCF7 CARM1 KO cells; [12]): -0.7814 | Fold change KO/WT (MCF7 cells; [21]): -0.7814

VGVPPQNPrPSLNSAPSPFNPQGQSQITDPR
CARM1 140-608/WT (MCF7 CARM1 KO cells; [18]): -2.085 | KO/WT (MCF7 CARM1 KO cells; [19]): -2.569 | Fold change KO/WT (MCF7 cells; [20]): -2.569

VGVPTAVQNLAPrAAVAAAAPrAVAPYK
CARM1 140-608/WT (MCF7 CARM1 KO cells; [1]): 0.2214 | KO/WT (MCF7 CARM1 KO cells; [2]): -3.003 | Fold change KO/WT (MCF7 cells; [3]): -3.907

VIGTAVArYNFAAR
CARM1 140-608/WT (MCF7 CARM1 KO cells; [4]): -1.8723 | KO/WT (MCF7 CARM1 KO cells; [5]): -2.89 | Fold change KO/WT (MCF7 cells; [6]): -2.89

VLGIIPSSTGTSQQTFTSFQPrTATVTIrPNTSGSGGTTSNSQVITGPQIrPGMTVIrTPLQQSTLGK
CARM1 140-608/WT (MCF7 CARM1 KO cells; [13]): -2.572 | KO/WT (MCF7 CARM1 KO cells; [14]): -6.437 | Fold change KO/WT (MCF7 cells; [15]): -6.437

VPrFSSLSSCNPPAMATSAEK
CARM1 140-608/WT (MCF7 CARM1 KO cells; [16]): -1.357 | KO/WT (MCF7 CARM1 KO cells; [17]): -1.804 | Fold change KO/WT (MCF7 cells; [10]): -1.804

VQTHLENPTrYHLQQAR
CARM1 140-608/WT (MCF7 CARM1 KO cells; [7]): -1.396 | KO/WT (MCF7 CARM1 KO cells; [7]): -1.173 | Fold change KO/WT (MCF7 cells; [8]): -1.173

VREELLrHQLLEK
CARM1 140-608/WT (MCF7 CARM1 KO cells; [13]): -2.55 | KO/WT (MCF7 CARM1 KO cells; [14]): -4.282 | Fold change KO/WT (MCF7 cells; [15]): -4.282

VSTSGPrAFSSR
CARM1 140-608/WT (MCF7 CARM1 KO cells; [11]): -3.216 | KO/WT (MCF7 CARM1 KO cells; [12]): -3.388 | Fold change KO/WT (MCF7 cells; [21]): -3.388

VSTSGPrAFSSrSYTSGPGSR
CARM1 140-608/WT (MCF7 CARM1 KO cells; [11]): -3.492 | KO/WT (MCF7 CARM1 KO cells; [12]): -3.7435 | Fold change KO/WT (MCF7 cells; [21]): -3.7435

VSTSGPrAFSSrSYTSGPGSrISSSSFSR
CARM1 140-608/WT (MCF7 CARM1 KO cells; [11]): -2.338 | KO/WT (MCF7 CARM1 KO cells; [12]): -2.338 | Fold change KO/WT (MCF7 cells; [21]): -2.338

VTrYPILGIPQAHR
CARM1 140-608/WT (MCF7 CARM1 KO cells; [11]): -2.491 | KO/WT (MCF7 CARM1 KO cells; [12]): -2.966 | Fold change KO/WT (MCF7 cells; [3]): -1.789

VrATSVLPrYGPPCLFK
CARM1 140-608/WT (MCF7 CARM1 KO cells; [7]): -1.769 | KO/WT (MCF7 CARM1 KO cells; [7]): -2.652 | Fold change KO/WT (MCF7 cells; [8]): -2.652

VrINLQQQPPPLQIK
CARM1 140-608/WT (MCF7 CARM1 KO cells; [7]): -1.463 | KO/WT (MCF7 CARM1 KO cells; [7]): -4.329 | Fold change KO/WT (MCF7 cells; [8]): -3.801

VrLPCQPLVPGPELRPSAAELK
CARM1 140-608/WT (MCF7 CARM1 KO cells; [11]): -1.578 | KO/WT (MCF7 CARM1 KO cells; [12]): -2.704 | Fold change KO/WT (MCF7 cells; [21]): -2.704

VrPVLNLPGPGPALPR
CARM1 140-608/WT (MCF7 CARM1 KO cells; [1]): -1.7334 | KO/WT (MCF7 CARM1 KO cells; [2]): -4.296 | Fold change KO/WT (MCF7 cells; [3]): -2.268

VrPVLNLPGPGPALPrALER
CARM1 140-608/WT (MCF7 CARM1 KO cells; [11]): -2.008 | KO/WT (MCF7 CARM1 KO cells; [12]): -2.391 | Fold change KO/WT (MCF7 cells; [3]): -2.391

WrYNKPLPPTPDLPQPHLPPISAPGSSR
CARM1 140-608/WT (MCF7 CARM1 KO cells; [13]): -1.118 | KO/WT (MCF7 CARM1 KO cells; [14]): -1.565 | Fold change KO/WT (MCF7 cells; [15]): -1.565

YCLTAPNYrLK
CARM1 140-608/WT (MCF7 CARM1 KO cells; [7]): -1.503 | KO/WT (MCF7 CARM1 KO cells; [7]): -1.727 | Fold change KO/WT (MCF7 cells; [8]): -0.9585

YLQTVQYGVHGNFPrLSYPTFFPR
CARM1 140-608/WT (MCF7 CARM1 KO cells; [16]): -2.496 | KO/WT (MCF7 CARM1 KO cells; [17]): -3.476 | Fold change KO/WT (MCF7 cells; [10]): -2.556

YPLPPPSGrYNWN
CARM1 140-608/WT (MCF7 CARM1 KO cells; [4]): -1.592 | KO/WT (MCF7 CARM1 KO cells; [5]): -1.5401 | Fold change KO/WT (MCF7 cells; [6]): -1.371

YRPYDGAASAYAQNYrYPEPERPSSR
CARM1 140-608/WT (MCF7 CARM1 KO cells; [18]): -1.157 | KO/WT (MCF7 CARM1 KO cells; [19]): -0.7141 | Fold change KO/WT (MCF7 cells; [20]): -0.7141

YSAFQLAPFQDHGLPAVSVDSPVrYK
CARM1 140-608/WT (MCF7 CARM1 KO cells; [4]): -1.433 | KO/WT (MCF7 CARM1 KO cells; [5]): -2.156 | Fold change KO/WT (MCF7 cells; [6]): -2.156

rPFGISALIVGFDDDGISR
CARM1 140-608/WT (MCF7 CARM1 KO cells; [1]): -0.5842 | KO/WT (MCF7 CARM1 KO cells; [2]): -1.577 | Fold change KO/WT (MCF7 cells; [20]): -1.577
